The subject of assay [1] is naïve human CD8 T cells. The experiment in a line: Human CD8 T cells IFN-γ assay.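 Further: Naïve human CD8 T cells stimulated with plate-bound anti-CD3 and soluble anti-CD28, IFN-γ in supernatant quantified by AlphaLISA and converted to pg/mL.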 As to conditions: read-out: HuCD8 INFG Normalized EC50. It is filed as cell-based.
The target in assay [2] is T1, human DGKα (Homo sapiens, UniProt P23743).
T1 construct: TVMV protease cleavage site (C); Hexa-His (C); made in house; host or cells: Sf9 insect cells (baculovirus, Bac-to-Bac)
T1 sequence (P23743 with tags, fused parts or gaps): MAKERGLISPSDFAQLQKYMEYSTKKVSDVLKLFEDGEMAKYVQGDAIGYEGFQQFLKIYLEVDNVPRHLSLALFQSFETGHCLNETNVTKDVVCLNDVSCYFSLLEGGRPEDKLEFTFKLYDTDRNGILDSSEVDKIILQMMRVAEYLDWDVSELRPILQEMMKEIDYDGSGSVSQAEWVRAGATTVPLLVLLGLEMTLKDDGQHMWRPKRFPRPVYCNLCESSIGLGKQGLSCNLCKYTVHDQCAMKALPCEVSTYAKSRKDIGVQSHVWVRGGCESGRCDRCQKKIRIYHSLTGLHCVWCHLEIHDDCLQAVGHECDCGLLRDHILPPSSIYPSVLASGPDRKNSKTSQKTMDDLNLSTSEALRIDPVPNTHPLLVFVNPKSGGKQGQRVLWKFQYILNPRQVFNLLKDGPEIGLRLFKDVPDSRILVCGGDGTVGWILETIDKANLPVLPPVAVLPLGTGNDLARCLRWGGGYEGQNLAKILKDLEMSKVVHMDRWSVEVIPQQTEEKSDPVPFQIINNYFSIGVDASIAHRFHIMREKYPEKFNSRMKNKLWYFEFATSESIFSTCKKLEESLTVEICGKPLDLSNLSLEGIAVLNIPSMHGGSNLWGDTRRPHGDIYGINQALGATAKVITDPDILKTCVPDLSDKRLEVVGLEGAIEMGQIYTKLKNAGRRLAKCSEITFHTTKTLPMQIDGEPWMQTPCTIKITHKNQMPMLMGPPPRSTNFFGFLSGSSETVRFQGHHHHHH
The experiment in a line: DGKα LIPGLO assay (extruded liposome substrate), in vitro DGK inhibition. It is filed as biochemical. As to conditions: read-out: DGKa LIPGLO IC50.

The target in assay [3] is T2, human DGKζ (Homo sapiens, UniProt Q13574).
T2 construct: TVMV protease cleavage site (C); Hexa-His (C); made in house; host or cells: Sf9 insect cells (baculovirus, Bac-to-Bac)
T2 sequence (Q13574 with tags, fused parts or gaps isoform Q13574-4): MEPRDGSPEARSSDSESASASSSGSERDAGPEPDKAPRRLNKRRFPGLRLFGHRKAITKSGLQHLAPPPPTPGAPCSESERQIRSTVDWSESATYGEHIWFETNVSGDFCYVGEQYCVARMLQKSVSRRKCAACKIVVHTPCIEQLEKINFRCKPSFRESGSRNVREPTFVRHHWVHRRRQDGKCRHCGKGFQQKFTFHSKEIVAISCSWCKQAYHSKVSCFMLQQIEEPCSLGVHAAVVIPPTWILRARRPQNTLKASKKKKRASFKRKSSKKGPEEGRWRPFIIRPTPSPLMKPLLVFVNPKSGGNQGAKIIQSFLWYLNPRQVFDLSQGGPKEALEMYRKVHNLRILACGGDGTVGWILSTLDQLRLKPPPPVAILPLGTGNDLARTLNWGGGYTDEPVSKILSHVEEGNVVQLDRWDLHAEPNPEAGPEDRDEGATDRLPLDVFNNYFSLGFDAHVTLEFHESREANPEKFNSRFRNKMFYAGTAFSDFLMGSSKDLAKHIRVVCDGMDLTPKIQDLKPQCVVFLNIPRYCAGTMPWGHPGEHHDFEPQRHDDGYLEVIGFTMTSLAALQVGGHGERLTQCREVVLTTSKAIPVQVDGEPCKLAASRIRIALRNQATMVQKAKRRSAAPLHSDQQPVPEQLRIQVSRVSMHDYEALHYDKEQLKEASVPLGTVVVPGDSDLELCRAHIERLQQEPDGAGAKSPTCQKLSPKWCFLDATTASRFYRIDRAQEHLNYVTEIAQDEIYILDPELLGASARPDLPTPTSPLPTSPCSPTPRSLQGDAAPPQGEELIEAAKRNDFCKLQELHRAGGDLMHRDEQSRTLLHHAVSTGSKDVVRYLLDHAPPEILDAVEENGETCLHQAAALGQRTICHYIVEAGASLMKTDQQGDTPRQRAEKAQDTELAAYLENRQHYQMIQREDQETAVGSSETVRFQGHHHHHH
The experiment in a line: DGKζ LIPGLO assay (extruded liposome substrate), in vitro DGK inhibition. The class given is biochemical. Particulars: read-out: DGKz LIPGLO IC50.

Assay [4] relates to Human venous whole blood. The experiment in a line: Human whole blood IFN-γ assay.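 Further: blood from healthy donors exposed to compound for 1 h before stimulation with anti-CD3 and anti-CD28 at 1 µg/mL each, IFN-γ quantified in supernatant by AlphaLISA.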 The class given is cell-based. As to conditions: human whole blood, read-out: INFg Whole Blood Normalized Agonist EC50.
Method: Human Whole Blood IFN-γ Assay
Human venous whole blood (22.5 μL per well), obtained from healthy donors, was pre-treated with compounds for one hour at 37° C. in a humidified 95% air/5% CO2 incubator. The blood was stimulated with 2.5 μL anti-human CD3 and anti-CD28 mAb at a final concentration of 1 μg/mL each for 24 hours at 37° C. IFN-γ in the supernatants was measured using AlphLISA kit (Cat # AL217).
Where [5] appears, read: Homo sapiens, T-cell, 20 h, naïve human CD8 T cells, anti-CD3 plus anti-CD28, 3 μM reference compound = 100% activation.
The mark [6] stands for this setting: Homo sapiens, T-cell, 20 h, normalized to 3 μM reference compound with anti-CD3 plus anti-CD28 as 100% activation.
The mark [7] stands for this setting: Homo sapiens, 24 h, normalized to 3 μM reference compound with anti-CD3 plus anti-CD28 as 100% activation.
[8] abbreviates: normalized to 3 μM reference compound with anti-CD3 plus anti-CD28 as 100% activation.

Where two headings read alike, the source gives them in different places.

As to `Cc1ccc(C(c2ccc(F)cc2)N2CCN(c3c(C#N)c(=O)n(C)c4ccc(C#N)nc34)C[C@H]2C)cc1` (stereo partly drawn) [Example 889], the EC50 in assay [1] (setting [5]) came out at 220 nM; in assay [4] (anti-CD3 plus anti-CD28, 24 hours, 3 μM reference compound = 100% activation), 670 nM. Also, the IC50 in assay [2] (DGKα liposome (LIPGLO) assay) was determined as 1300 nM; in assay [3] (DGKζ liposome (LIPGLO) assay), 370 nM.

`C[C@@H]1CN(c2cc(=O)n(C)c3ccc(C#N)nc23)[C@@H](C)CN1Cc1ccc(C(F)(F)F)nc1Cl` [Example 281, 8-[(2S,5R)-4-{[2-chloro-6-(trifluoromethyl)pyridin-3-yl]methyl}-2,5-dimethylpiperazin-1-yl]-5-methyl-6-oxo-5,6-dihydro-1,5-naphthyridine-2-carbonitrile]: the EC50 in assay [1] (setting [6]) was 560 nM; in assay [4] (setting [7]) it was 2700 nM. Further, the IC50 was determined as 2800 nM in assay [2] (liposome (LIPGLO) assay) and 4400 nM in assay [3] (liposome (LIPGLO) assay).

For `CCOc1cc(F)ccc1C(c1ccc(F)cc1)N1C[C@H](C)N(c2cc(=O)n(C)c3ccc(C#N)nc23)C[C@H]1C` (single isomer, unassigned) [Example 230], the EC50 in assay [1] (setting [8]) was determined as 370 nM; in assay [4] (setting [8]), 5300 nM. Further, the 50% inhibitory concentration (IC50) in assay [2] (liposome (LIPGLO) assay) was determined as 26000 nM; in assay [3] (liposome (LIPGLO) assay) it was 490 nM.

Consider `C[C@@H]1CN(c2cc(=O)n(C)c3ccc(C#N)nc23)[C@@H](C)CN1C(c1cccc(F)c1)c1cccc(F)c1` [Example 270, 8-[(2S,5R)-4-[bis(3-fluorophenyl)methyl]-2,5-dimethylpiperazin-1-yl]-5-methyl-6-oxo-5,6-dihydro-1,5-naphthyridine-2-carbonitrile], for which the 50% effective concentration (EC50) was found to be 62 nM in assay [1] (setting [6]) and 2000 nM in assay [4] (setting [7]). Moreover, the IC50 in assay [2] (liposome (LIPGLO) assay) amounted to 3400 nM; in assay [3] (liposome (LIPGLO) assay), 570 nM.

Take `C[C@@H]1CN(c2cc(=O)n(C)c3ccc(C#N)nc23)[C@@H](C)CN1Cc1ccccc1F` [Example 287, 8-[(2S,5R)-4-[(2-fluorophenyl)methyl]-2,5-dimethylpiperazin-1-yl]-5-methyl-6-oxo-5,6-dihydro-1,5-naphthyridine-2-carbonitrile]: the concentration for a half-maximal effect (EC50) in assay [1] (setting [6]) amounted to 12000 nM; in assay [4] (setting [7]) it was 7100 nM. In addition, the concentration for half-maximal inhibition (IC50) turned out to be 34 nM in assay [2] (liposome (LIPGLO) assay) and 1600 nM in assay [3] (liposome (LIPGLO) assay).

Regarding `C[C@@H]1CN(c2cc(=O)n(C)c3ccc(C#N)nc23)[C@@H](C)CN1C(c1ccc(F)cc1)c1cccc(F)c1` (mixture of isomers) [Example 248, 8-[(2S,5R)-4-[(3-fluorophenyl)(4-fluorophenyl)methyl]-2,5-dimethylpiperazin-1-yl]-5-methyl-6-oxo-5,6-dihydro-1,5-naphthyridine-2-carbonitrile], the values for the EC50 in assay [1] (setting [6]) and in assay [4] (setting [7]) were 53 nM and 710 nM, respectively. For the same molecule, the figures for the IC50 in assay [2] (liposome (LIPGLO) assay) and in assay [3] (liposome (LIPGLO) assay) were 1300 nM and 790 nM, respectively.

For the molecule `C[C@@H]1CN(c2cc(=O)n(C)c3ccc(C#N)nc23)[C@@H](C)CN1C(c1ccccc1)c1ccc(OC(F)(F)F)cc1` (single isomer, unassigned) [Example 221], the EC50 in assay [1] (setting [6]) is 42 nM; in assay [4] (setting [8]), 3000 nM. The IC50 in assay [2] (liposome (LIPGLO) assay) is 1200 nM; in assay [3] (liposome (LIPGLO) assay), 750 nM.

`C[C@@H]1CN(c2cc(=O)n(C)c3ccc(C#N)nc23)[C@@H](C)CN1Cc1ccccc1O` [Example 245, 8-[(2S,5R)-4-[(2-hydroxyphenyl)methyl]-2,5-dimethylpiperazin-1-yl]-5-methyl-6-oxo-5,6-dihydro-1,5-naphthyridine-2-carbonitrile]: the results for the EC50 in assay [1] (setting [6]) and in assay [4] (setting [7]) were 750 nM and 5200 nM, respectively. In addition, the IC50 is 8.6 nM in assay [2] (liposome (LIPGLO) assay) and 1100 nM in assay [3] (liposome (LIPGLO) assay).

Turning to `C[C@@H]1CN(c2cc(=O)n(C)c3ccc(C#N)nc23)[C@@H](C)CN1Cc1ccc(F)cc1F` [Example 277, 8-[(2S,5R)-4-[(2,4-difluorophenyl)methyl]-2,5-dimethylpiperazin-1-yl]-5-methyl-6-oxo-5,6-dihydro-1,5-naphthyridine-2-carbonitrile], the EC50 was 66 nM in assay [1] (setting [6]) and 840 nM in assay [4] (setting [7]). Further, the IC50 in assay [2] (liposome (LIPGLO) assay) turned out to be 250 nM; in assay [3] (liposome (LIPGLO) assay) it was 1500 nM.

For `CCc1cc(F)ccc1C(c1ccc(Cl)cc1)N1C[C@H](C)N(c2cc(=O)n(C)c3ccc(OC)nc23)C[C@H]1C` (single isomer, unassigned) [Example 232], the values for the EC50 in assay [1] (setting [8]) and in assay [4] (setting [8]) were 10000 nM and 20000 nM, respectively. The values for the IC50 in assay [2] (liposome (LIPGLO) assay) and in assay [3] (liposome (LIPGLO) assay) were 240000 nM and 1700 nM, respectively.

For `CC[C@H]1CN(C(c2ccc(Cl)cc2)c2ccc(Cl)cc2)[C@H](C)CN1c1cc(=O)n(C)c2ccc(C#N)nc12` [Example 1120], the EC50 stood at 32 nM in assay [1] (setting [6]) and 680 nM in assay [4] (setting [7]). In addition, the results for the IC50 in assay [2] (liposome (LIPGLO) assay) and in assay [3] (liposome (LIPGLO) assay) were 110 nM and 75 nM, respectively.

Regarding `C[C@@H]1CN(c2cc(=O)n(C)c3ccc(C#N)nc23)[C@@H](C)CN1Cc1cccc(C(F)(F)F)n1` [Example 278, 8-[(2S,5R)-2,5-dimethyl-4-{[6-(trifluoromethyl)pyridin-2-yl]methyl}piperazin-1-yl]-5-methyl-6-oxo-5,6-dihydro-1,5-naphthyridine-2-carbonitrile], the values for the EC50 in assay [1] (setting [6]) and in assay [4] (setting [7]) were 2200 nM and 3200 nM, respectively. In addition, the IC50 was 870 nM in assay [2] (liposome (LIPGLO) assay) and 1500 nM in assay [3] (liposome (LIPGLO) assay).

Regarding `C[C@@H]1CN(c2cc(=O)n(C)c3ccc(C#N)nc23)[C@@H](C)CN1C(c1ccc(F)cc1)c1c(F)cccc1F` (single isomer, unassigned) [Example 275], the EC50 is 230 nM in assay [1] (setting [8]) and 3700 nM in assay [4] (setting [8]). Moreover, the figures for the IC50 in assay [2] (liposome (LIPGLO) assay) and in assay [3] (liposome (LIPGLO) assay) were 1900 nM and 3600 nM, respectively.

For the molecule `C[C@@H]1CN(c2cc(=O)n(C)c3ccc(C#N)nc23)[C@@H](C)CN1C(c1ccc(F)cc1)c1ccc(Cl)cc1` (stereo partly drawn) [Example 300, 8-[(2S,5R)-4-[(4-chlorophenyl)(4-fluorophenyl)methyl]-2,5-dimethylpiperazin-1-yl]-5-methyl-6-oxo-5,6-dihydro-1,5-naphthyridine-2-carbonitrile], the EC50 in assay [1] (setting [6]) is 21 nM; in assay [4] (setting [7]) it was 120 nM. The half-maximal inhibitory concentration (IC50) in assay [2] (liposome (LIPGLO) assay) turned out to be 890 nM; in assay [3] (liposome (LIPGLO) assay) it was 1000 nM.

On to `CCc1cc(F)ccc1C(c1ccc(Cl)cc1)N1C[C@H](C)N(c2cc(=O)n(C)c3ccc(OC)nc23)C[C@H]1C` (single isomer, unassigned) [Example 231], for which the 50% effective concentration (EC50) in assay [1] (setting [8]) was determined as 1100 nM; in assay [4] (setting [7]), 20000 nM. Moreover, the IC50 in assay [2] (liposome (LIPGLO) assay) was determined as 240000 nM; in assay [3] (liposome (LIPGLO) assay) it was 3700 nM.

With `Cc1ccc(C(c2ccc(Cl)cc2)N2CCN(c3c(C#N)c(=O)n(C)c4ccc(C#N)nc34)C[C@H]2C)cc1` (mixture of isomers) [Example 907], the 50% effective concentration (EC50) in assay [1] (setting [5]) came to 70 nM; in assay [4] (Homo sapiens, 24 h, anti-CD3 plus anti-CD28, 24 hours, 3 μM reference compound = 100% activation) it was 730 nM. Moreover, the IC50 was 4400 nM in assay [2] (DGKα liposome (LIPGLO) assay) and 1500 nM in assay [3] (DGKζ liposome (LIPGLO) assay).

In the case of `C[C@@H]1CN(c2cc(=O)n(C)c3ccc(C#N)nc23)[C@@H](C)CN1C(c1ccccc1)c1cc(F)cc(F)c1` (stereo partly drawn) [Example 288, 8-[(2S,5R)-4-[(3,5-difluorophenyl)(phenyl)methyl]-2,5-dimethylpiperazin-1-yl]-5-methyl-6-oxo-5,6-dihydro-1,5-naphthyridine-2-carbonitrile], the concentration for a half-maximal effect (EC50) in assay [1] (setting [6]) was found to be 26 nM; in assay [4] (setting [7]), 810 nM. In addition, the IC50 worked out at 2000 nM in assay [2] (liposome (LIPGLO) assay) and 2200 nM in assay [3] (liposome (LIPGLO) assay).

With `C[C@@H]1CN(c2cc(=O)n(C)c3ccc(C#N)nc23)[C@@H](C)CN1Cc1ccc(Cl)cc1O` [Example 244, 8-[(2S,5R)-4-[(4-chloro-2-hydroxyphenyl)methyl]-2,5-dimethylpiperazin-1-yl]-5-methyl-6-oxo-5,6-dihydro-1,5-naphthyridine-2-carbonitrile], the EC50 is 110 nM in assay [1] (setting [6]) and 1700 nM in assay [4] (setting [7]). For the same molecule, the half-maximal inhibitory concentration (IC50) in assay [2] (liposome (LIPGLO) assay) was 260 nM; in assay [3] (liposome (LIPGLO) assay), 1100 nM.

As for `Cc1ccnc(C(c2ccc(F)cc2)N2C[C@H](C)N(c3cc(=O)n(C)c4ccc(C#N)nc34)C[C@H]2C)c1` (single isomer, unassigned) [Example 455], the EC50 in assay [1] (setting [6]) came to 97 nM; in assay [4] (setting [7]), 740 nM. For the same molecule, the half-inhibitory concentration (IC50) in assay [2] (liposome (LIPGLO) assay) came out at 1000 nM; in assay [3] (liposome (LIPGLO) assay) it was 2400 nM.

`COC(=O)C1CN(C(c2ccc(F)cc2)c2ccc(F)cc2)CCN1c1c(C#N)c(=O)n(C)c2ccc(Br)nc12` (stereo not drawn) [Example 115, Methyl 4-(bis(4-fluorophenyl)methyl)-1-(6-bromo-3-cyano-1-methyl-2-oxo-1,2-dihydro-1,5-naphthyridin-4-yl)piperazine-2-carboxylate]: the values for the concentration giving a half-maximal response (EC50) in assay [1] (setting [6]) and in assay [4] (setting [7]) were 390 nM and 2000 nM, respectively. Moreover, the half-inhibitory concentration (IC50) in assay [2] (liposome (LIPGLO) assay) was 1000 nM; in assay [3] (liposome (LIPGLO) assay), 8800 nM.

In the case of `Cc1nc(C(F)(F)F)ccc1CN1C[C@H](C)N(c2cc(=O)n(C)c3ccc(C#N)nc23)C[C@H]1C` [Example 279, 8-[(2S,5R)-2,5-dimethyl-4-{[2-methyl-6-(trifluoromethyl)pyridin-3-yl]methyl}piperazin-1-yl]-5-methyl-6-oxo-5,6-dihydro-1,5-naphthyridine-2-carbonitrile], the EC50 in assay [1] (setting [6]) amounted to 1200 nM; in assay [4] (setting [7]), 3700 nM. The IC50 in assay [2] (liposome (LIPGLO) assay) is 2300 nM; in assay [3] (liposome (LIPGLO) assay), 4600 nM.

(Values after patent publication US10669272B2, “Substituted naphthyridinone compounds useful as T cell activators” (BRISTOL-MYERS SQUIBB COMPANY, priority 2018, dated 2020).)
